From PubChem BioAssay (NCI)
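Test compounds were applied to cells in 96-well plates for 48 hours at 5 doses. GI50 marks 50% less growth. Definition used: TGI = concentration required for complete inhibition of growth.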

What was measured:
Assay in all cases: inhibition of tumour cell growth, NCI panel, 48 h
[1] = test system: SNB-75 CNS
[2] = test system: NCI-H23 lung
[3] = test system: SF-295 CNS
[4] = test system: RXF 393 renal
[5] = test system: MOLT-4 leukemia
[6] = test system: MCF7 breast
[7] = test system: A549 NSCLC
[8] = test system: 786-0 renal
[9] = test system: DU-145 prostate
[10] = test system: CAKI-1 renal
[11] = test system: SR leukemia
[12] = test system: OVCAR-8 ovarian
[13] = test system: T-47D breast
[14] = test system: HL-60(TB) leukemia
[15] = test system: IGROV1 ovarian
[16] = test system: KM12 colon
[17] = test system: SK-MEL-28 melanoma
[18] = test system: MDA-MB-231 breast
[19] = test system: CCRF-CEM leukemia
[20] = test system: HCC-2998 colon
[21] = test system: UACC-257 melanoma
[22] = test system: UACC-62 melanoma
[23] = test system: SK-MEL-5 melanoma
[24] = test system: SK-OV-3 ovarian
[25] = test system: TK-10 renal
[26] = test system: PC-3 prostate
[27] = test system: COLO 205 colon
[28] = test system: RPMI-8226 leukemia
[29] = test system: MDA-N
[30] = test system: HOP-62 NSCLC
[31] = test system: HCT-15 colon
[32] = test system: MALME-3M melanoma
[33] = test system: EKVX NSCLC
[34] = test system: SN12C renal
[35] = test system: M14 melanoma
[36] = test system: SW-620 colon
[37] = test system: K-562 leukemia
[38] = test system: HT29 colon
[39] = test system: BT-549 breast
[40] = test system: SF-268 CNS
[41] = test system: UO-31 renal
[42] = test system: LOX IMVI melanoma
[43] = test system: NCI-H226 lung
[44] = test system: OVCAR-3 ovarian
[45] = test system: NCI-H522 lung
[46] = test system: ACHN renal
[47] = test system: SNB-19 CNS
[48] = test system: NCI/ADR-RES ovarian
[49] = test system: NCI-H460 lung
[50] = test system: HCT-116 colon
[51] = test system: HS 578T breast
[52] = test system: OVCAR-5 ovarian
[53] = test system: SK-MEL-2 melanoma
[54] = test system: A498 renal
[55] = test system: MDA-MB-435
[56] = test system: SF-539 CNS
[57] = test system: OVCAR-4 ovarian
[58] = test system: U251 CNS
[59] = test system: HOP-92 NSCLC

## Cc1ccc(S(=O)(=O)OC2C(O)C(O)OC2C(c2cc(O)c3c(c2O)C(=O)c2ccccc2C3=O)c2cc(O)c3c(c2O)C(=O)c2ccccc2C3=O)cc1 (configuration not stated)
[1]
  TGI: > 10 µM
[2]
  TGI: 8.93 µM
[3]
  TGI: 9.33 µM
[4]
  TGI: > 10 µM
[5]
  TGI: > 10 µM
[6]
  TGI: > 10 µM
[7]
  TGI: > 10 µM
[8]
  TGI: > 10 µM
[9]
  TGI: > 10 µM
[10]
  TGI: 8.9 µM
[11]
  TGI: > 10 µM
[12]
  TGI: > 10 µM
[13]
  TGI: > 10 µM
[14]
  TGI: 4.52 µM
[15]
  TGI: > 10 µM
[16]
  TGI: > 10 µM
[17]
  TGI: > 10 µM
[18]
  TGI: > 10 µM
[19]
  TGI: > 10 µM
[20]
  TGI: > 10 µM
[21]
  TGI: > 10 µM
[22]
  TGI: > 10 µM
[23]
  TGI: > 10 µM
[24]
  TGI: > 10 µM
[25]
  TGI: > 10 µM
[26]
  TGI: 9.43 µM
[27]
  TGI: 4.85 µM
[28]
  TGI: 8.67 µM
[29]
  TGI: > 10 µM
[30]
  TGI: > 10 µM
[31]
  TGI: > 10 µM
[32]
  TGI: 6.98 µM
[33]
  TGI: > 10 µM
[34]
  TGI: > 10 µM
[35]
  TGI: 8.71 µM
[36]
  TGI: > 10 µM
[37]
  TGI: > 10 µM
[38]
  TGI: > 10 µM

## CN(C)c1ccc(C=NCC2CCCN3CCCCC23)cc1 (configuration not stated)
[1]
  TGI: > 100 µM
[2]
  TGI: > 100 µM
[3]
  TGI: > 100 µM
[39]
  TGI: > 100 µM
[4]
  TGI: > 100 µM
[6]
  TGI: > 100 µM
[40]
  TGI: > 100 µM
[7]
  TGI: > 100 µM
[8]
  TGI: > 100 µM
[9]
  TGI: > 100 µM
[10]
  TGI: > 100 µM
[12]
  TGI: > 100 µM
[15]
  TGI: > 100 µM
[16]
  TGI: > 100 µM
[41]
  TGI: > 100 µM
[18]
  TGI: > 100 µM
[20]
  TGI: > 100 µM
[21]
  TGI: > 100 µM
[22]
  TGI: > 100 µM
[23]
  TGI: > 100 µM
[24]
  TGI: > 100 µM
[25]
  TGI: > 100 µM
[26]
  TGI: > 100 µM
[27]
  TGI: > 100 µM
[42]
  TGI: > 100 µM
[29]
  TGI: > 100 µM
[43]
  TGI: > 100 µM
[44]
  TGI: > 100 µM
[45]
  TGI: > 100 µM
[30]
  TGI: > 100 µM
[31]
  TGI: > 100 µM
[46]
  TGI: > 100 µM
[32]
  TGI: > 100 µM
[47]
  TGI: > 100 µM
[33]
  TGI: > 100 µM
[35]
  TGI: > 100 µM
[48]
  TGI: > 100 µM
[49]
  TGI: > 100 µM
[50]
  TGI: > 100 µM
[51]
  TGI: > 100 µM
[52]
  TGI: > 100 µM

## O=[N+]([O-])c1cc(Cl)c2[nH]c3c(Cl)cc([N+](=O)[O-])cc3c2c1
[53]
  GI50: 0.347 µM
  TGI: 2.19 µM
[1]
  GI50: 0.511 µM
  TGI: 9.35 µM
[2]
  GI50: 0.213 µM
  TGI: 28.2 µM
[3]
  GI50: 0.229 µM
  TGI: 1.99 µM
[39]
  GI50: 0.326 µM
  TGI: 5.34 µM
[4]
  GI50: 0.461 µM
  TGI: 18.8 µM
[54]
  GI50: 0.15 µM
  TGI: 1.36 µM
[5]
  GI50: 0.329 µM
  TGI: > 100 µM
[6]
  GI50: 0.284 µM
  TGI: > 100 µM
[40]
  GI50: 0.403 µM
  TGI: > 100 µM
[7]
  GI50: 0.302 µM
  TGI: 2.9 µM
[8]
  GI50: 0.294 µM
  TGI: 16.7 µM
[55]
  GI50: 0.31 µM
[9]
  GI50: 0.508 µM
  TGI: > 100 µM
[10]
  GI50: 0.209 µM
  TGI: 0.752 µM
[11]
  GI50: 0.32 µM
  TGI: > 100 µM
[12]
  GI50: 0.253 µM
  TGI: 1.23 µM
[13]
  GI50: 0.254 µM
  TGI: > 100 µM
[14]
  GI50: 0.304 µM
  TGI: 6.34 µM
[15]
  GI50: 0.471 µM
  TGI: > 100 µM
[16]
  GI50: 0.354 µM
  TGI: > 100 µM
[17]
  GI50: 0.47 µM
  TGI: > 100 µM
[41]
  GI50: 0.189 µM
  TGI: 1.38 µM
[18]
  GI50: 0.482 µM
  TGI: 8.89 µM
[19]
  GI50: 0.391 µM
  TGI: 24.1 µM
[20]
  GI50: 0.331 µM
  TGI: > 100 µM
[21]
  GI50: 0.159 µM
  TGI: 0.996 µM
[22]
  GI50: 0.247 µM
  TGI: > 100 µM
[23]
  GI50: 0.129 µM
  TGI: 0.651 µM
[24]
  GI50: 0.468 µM
  TGI: 5.8 µM
[25]
  GI50: 0.356 µM
  TGI: 19.1 µM
[26]
  GI50: 0.379 µM
  TGI: > 100 µM
[27]
  GI50: 0.469 µM
  TGI: 1.99 µM
[56]
  GI50: 0.653 µM
  TGI: > 92.2 µM
[28]
  GI50: 0.124 µM
  TGI: > 100 µM
[42]
  GI50: 0.308 µM
  TGI: > 42 µM
[43]
  GI50: 0.393 µM
  TGI: > 100 µM
[44]
  GI50: 0.279 µM
  TGI: > 100 µM
[45]
  GI50: 0.286 µM
  TGI: > 100 µM
[30]
  GI50: 0.971 µM
  TGI: > 38.4 µM
[31]
  GI50: 0.355 µM
  TGI: > 100 µM
[46]
  GI50: 0.362 µM
[32]
  GI50: 0.265 µM
  TGI: 4.04 µM
[47]
  GI50: 0.357 µM
  TGI: > 100 µM
[33]
  GI50: 0.244 µM
  TGI: > 27.1 µM
[34]
  GI50: 0.296 µM
  TGI: > 100 µM
[57]
  GI50: 0.263 µM
  TGI: > 100 µM
[58]
  GI50: 0.286 µM
  TGI: 5.43 µM
[35]
  GI50: 0.458 µM
  TGI: > 54.7 µM
[36]
  GI50: 0.576 µM
  TGI: > 100 µM
[48]
  GI50: 0.345 µM
[49]
  GI50: 0.311 µM
  TGI: > 100 µM
[50]
  GI50: 0.263 µM
  TGI: 7.12 µM
[37]
  GI50: 0.243 µM
  TGI: > 100 µM
[38]
  GI50: 0.431 µM
  TGI: > 100 µM
[59]
  GI50: 0.0596 µM
  TGI: 0.405 µM
[51]
  GI50: 0.609 µM
  TGI: > 100 µM
[52]
  GI50: 1.33 µM
  TGI: > 29.5 µM
